Marks after values point to notes of the source that are not given here.
What was measured:
[1] = system: backcrossed turfgrass samples; experiment: Glyphosate resistance phenotype of backcrossed turfgrass samples; assay type: in vivo
Excerpt: In some embodiments, the germplasm can have more than one glyphosate resistant allele. At least one of the glyphosate resistant alleles is the single nucleotide polymorphism (“SNP”) for the EPSPS gene at nt301 of SEQ. ID. NO. 1. By sequencing of the EPSPS from sensitive and resistant ryegrass biotypes the SNP was identified. A change from cytosine to thymine at this position changes the amino acid from proline to serine. The SNP at nt301 of SEQ. ID. NO. 1 can be used as a marker to identify plants that carry the allele of the resistant form of EPSPS. As shown in Table 1 and highlighted in the Examples below, a second allele can contribute to the glyphosate resistance.
Having both the first allele (the SNP) and the second allele in a plant such as, for example, a turf grass, can increase resistance to glyphosate. In some embodiments, the second allele may be attributed to glyphosate oxidoreductase (“GOX”) enzyme encoded by a GOX gene. Only one of the alleles may be needed to produce a glyphosate resistant plant such as for example, a turfgrass. In some embodiments, the second allele can be identified as the Gly-Rest 2 gene. The Gly-Rest 2 gene encodes a glyphosate resistant protein that can be identified as the Gly-Resist Protein (“GRP”) which is different from the glyphosate resistant EPSPS. To identify which plants have only the GRP protein, the following is an example of an analysis that can be useful. The plants that have been crossed with a known glyphosate resistant parent are grown. A herbicidally effective amount of glyphosate is applied to the plants. The plants that survive the application are selected and a part of the plant is then used to determine if a biomarker for glyphosate resistant EPSPS is present. An example of such an analysis is discussed in the examples below. If the biomarker is present, then the plant has at least glyphosate resistant EPSPS and may have GRP. […] A biomarker analysis for GRP can be designed and designing such an analysis is well within the knowledge of those skilled in the art.

[2] = system: S biotype of the California rigid ryegrass; experiment: Glyphosate drops on leaves, susceptible biotype; assay type: in vivo, Lolium rigidum; details: three 2 µl drops on two leaves, corresponds to 1.12 kg ai ha^-1; one week after treatment; ROUNDUP ULTRA (isopropylamine salt)
Experimental: (§1) Rigid ryegrass (Lolium rigidum Gaud.) plants are collected from an almond orchard intensively treated with glyphosate since 1984. The collected plants are grown and seed produced in greenhouse. The resistant, intermediate and susceptible biotypes are selected in the first generation using 1.12, 2.24, and 3.36 kg ai ha^−1 rates of glyphosate. Further selection is continued with a high glyphosate rate (8.96 kg ai ha^−1) to select for the resistant and with the low rate (0.28 kg ai ha^−1) to select for the susceptible individuals. The resistant (R) and susceptible (S) biotypes used in this example are generated from the 5th and 4th cycle, respectively.
R and S biotypes of the California rigid ryegrass are grown individually to the fully vegetatively mature stage prior to seedhead formation. In one experiment, two fully mature leaves of each plant (one R and one S biotypes) are treated with three 2 μl drops of glyphosate (glyphosate isopropylamine salt, ROUNDUP ULTRA™, Monsanto Co., St. Louis, Mo.) solution applied to the upper leaf surface. This corresponds to a field rate of 1.12 kg ai ha^−1 glyphosate at a volume of 187 L ha^−1 and pressure of 172.5 kPa. One week after treatment, the S biotype is dead, but no injury is observed on the R biotype.

[3] = system: first generation of rigid ryegrass (Lolium rigidum) collected from California; experiment: Glyphosate resistance and sensitivity of the first generation; assay type: in vivo; details: for Survivors: means of two experiments with 90 plants
Experimental: as §1
The collected plants produced seeds in the greenhouse after 8 to 10 weeks. The seeds are designated as the first generation, harvested and replanted for glyphosate resistant evaluation. The percentages of survivors are 89, 59, 45, and 9 percent following glyphosate application at 1×, 2×, 4× and 8×, respectively, is shown in Table 2.

[4] = system: Transformed Agrobacterium (glyphosate-resistant rigid ryegrass EPSPS); experiment: Growth in M-9 media with glyphosate, transformed with resistant EPSPS; assay type: cell-based, Agrobacterium tumefaciens; details: 48 hours
Experimental: The level of glyphosate resistance is assayed from resistant rigid ryegrass EPSPS-expressing Agrobacterium that are transformed with a DNA construct encoding the resistant EPSPS enzyme (SEQ. ID. NO. 16).
An EPSPS gene (SEQ. ID. NO. 15) is obtained from glyphosate resistant rigid ryegrass. The EPSPS gene is ligated with the binary vector pFGC5941, a 11406 bp construct with kanamycin resistant gene, BAR gene as a selectable marker, and 35S Promoter. The ligation is cloned in pGEM vector and grown in LB broth. The plasmid from cloned pGEM is confirmed for the inserted EPSPS gene by PCR.
The confirmed plasmid is transformed into Agrobacterium tumefaciens by “freeze thaw technique” using liquid nitrogen. The transformed Agrobacterium is grown in LB plated and maintained 28° C. for 72 h. Some colonies are grown in LB broth for 24 h and tested for the inserted EPSPS gene by PCR. The confirmed Agrobacterium is grown in 50 mL LB broth for 24 h. The Agrobacterium is centrifuged at 5000×g for 10 min, and the pellets are diluted with 2 mL 1.0 M CaCl2. At the same time, a wild-type Agrobacterium is also grown and extracted similar to the transformed Agrobacterium. The Agrobacterium solutions (10 μL) are grown in 50 mL media containing 1×M-9 salt media (SIGMA), 20 mM glucose, 2 mM MgSO4, and glyphosate at 0, 0.25, 0.5, 0.75, 1.0, 1.5, and 2 mM.
The growth (indicated by Optical Density 600 nm) is measured after 48 hours.

[5] = glyphosate 1.12 kg ai ha^-1 (1x)
[6] = glyphosate 2.24 kg ai ha^-1 (2x)
[7] = glyphosate 4.48 kg ai ha^-1 (4x)
[8] = glyphosate 8.96 kg ai ha^-1 (8x)

## O=C(O)CNCP(=O)(O)O [glyphosate, N-(phosphonomethyl) glycine]
[1]; sample 1 S control, SNP No
  Phenotype (Dead): 1X
[1]; sample 2 R control, SNP Yes
  Phenotype (Dead): 8X
[1]; sample 3, SNP No
  Phenotype (Dead): 2X
[1]; sample 4, SNP Yes
  Phenotype (Dead): 2X
[1]; sample 5, SNP Yes
  Phenotype (Dead): 8X
[1]; sample 6, SNP No
  Phenotype (Dead): 1X
[1]; sample 7, SNP No
  Phenotype (Dead): 4X
[1]; sample 8, SNP No
  Phenotype (Dead): 1X
[1]; sample 9, SNP Yes
  Phenotype (Dead): 4X
[1]; sample 10, SNP No
  Phenotype (Dead): 4X
[1]; sample 11, SNP Yes
  Phenotype (Dead): 4X
[1]; sample 12, SNP Yes
  Phenotype (Dead): 4X
[1]; sample 13, SNP No
  Phenotype (Dead): 1X
[1]; sample 14, SNP No
  Phenotype (Dead): 2X
[1]; sample 15, SNP Yes
  Phenotype (Dead): 4X
[1]; sample 16, SNP Yes
  Phenotype (Dead): 4X
[1]; sample 17, SNP Yes
  Phenotype (Dead): 6X
[1]; sample 18, SNP Yes
  Phenotype (Dead): 2X
[1]; sample 19, SNP No
  Phenotype (Dead): 4X
[1]; sample 20, SNP No
  Phenotype (Dead): 4X
[1]; sample 21, SNP No
  Phenotype (Dead): 4X
[1]; sample 22 S control, SNP No
  Phenotype (Dead): 1X
[1]; sample 23 R control, SNP Yes
  Phenotype (Dead): 8X
[2]
  Plant injury: dead
[3]; [5]
  Dead plants: 11^c percent
  Survivors: 89%
[3]; [6]
  Dead plants: 41%
  Survivors: 59%
[3]; [7]
  Dead plants: 55%
  Survivors: 45%
[3]; [8]
  Dead plants: 91%
  Survivors: 9%
[3]; glyphosate 8.96 kg ai ha^-1 (8x), listed as Glyphosate
  Survivors: 9^b percent
[4]; glyphosate 0.25 mM
  Growth, OD 600 nm: 0.632
  Growth, Percent: 98%
[4]; glyphosate 0.50 mM
  Growth, OD 600 nm: 0.185
  Growth, Percent: 29%
[4]; glyphosate 0.75 mM
  Growth, OD 600 nm: 0.097
  Growth, Percent: 15%
[4]; glyphosate 1.00 mM
  Growth, OD 600 nm: 0.025
  Growth, Percent: 4%
[4]; glyphosate 1.50 mM
  Growth, OD 600 nm: 0.024
  Growth, Percent: 4%
[4]; glyphosate 2.00 mM
  Growth, OD 600 nm: 0.02
  Growth, Percent: 3%

Source: patent publication US7906709B2, “Methods for breeding glyphosate resistant plants and compositions thereof” (priority 2006, dated 2011)
